Assay results published in patent US9464106B2, “Oligonucleotides useful for detecting and analyzing nucleic acids of interest” (Exiqon A/S, priority 2002, dated 2016).
l = locked nucleic acid (LNA); [5mC] = 5-methylcytosine; d = 2'-deoxy (DNA)

The substances below were run on yeast HSP78 (YDR258C) sequence (assay: Duplex melting temperatures of HSP78 25-mer capture probes (UV spectrophotometer)). Details: 25-mer capture probe duplex with complementary target; design PM = perfectly matched, MM = single mismatch; DNA, LNA_T (T) or LNA_TC (TC) substituted.

First: 12680 (DNA ACCATCATCACCGAACTTTGTGTCG; DNA, backbone not given here) [compound 12680]
Second: 12681 (DNA CAATGATCGTGTAACGGAAATCAAC; DNA, backbone not given here) [compound 12681]
The “Average duplex melting temp.” value of the first is higher: 63.6 °C for the first, 59.3 °C for the second.

Compared with “12682 (DNA TGGCCTAGGGAAACGGTCAGCTTAC; DNA, backbone not given here) [compound 12682]”, “12683 (DNA TTGGAAACATCGCGGTGCGCTTTTT; DNA, backbone not given here) [compound 12683]” is lower in “Average duplex melting temp.” value: 65.2 °C for the first, 61.5 °C for the second.

Compared with “12684 (DNA GAAACATCGGGGAGCGCTTTTTCAA; DNA, backbone not given here) [compound 12684]”, “12685 (DNA GACAGCCTCAGTAAATTGGCCACCA; DNA, backbone not given here) [compound 12685]” is higher in “Average duplex melting temp.” value: 63.8 °C for the first, 64.8 °C for the second.

Going from “12686 (DNA CCGATTAAACGACAGACAGTATGCT; DNA, backbone not given here) [compound 12686]” to “12687 (DNA ATCAAATAGGAAATCAGCTAAAGCC; DNA, backbone not given here) [compound 12687]”, the “Average duplex melting temp.” value falls from 57.1 °C to 54.3 °C.

Going from “12688 (DNA GACCTAAGAACAAAAAGCTGGCAAT; DNA, backbone not given here) [compound 12688]” to “12689 (DNA AAATAGCAGCAAAGGCCTCGTCTTG; DNA, backbone not given here) [compound 12689]”, the “Average duplex melting temp.” value rises from 58.2 °C to 64 °C.

First: 12690 (DNA ATAGCAGCAATGCCCTCGTCTTGGC; DNA, backbone not given here) [compound 12690]
Second: 12691 (DNA GCAATGGCCTCGACTTGGCCAACGA; DNA, backbone not given here) [compound 12691]
The “Average duplex melting temp.” value of the first is lower: 62.9 °C for the first, 68.5 °C for the second.

Compared with “12692 (DNA GATGAACTCAGGAGGATAGGATCTT; DNA, backbone not given here) [compound 12692]”, “12693 (DNA TCAGTTAGCCAAACCTTCGCTTCAT; DNA, backbone not given here) [compound 12693]” is higher in “Average duplex melting temp.” value: 58.2 °C for the first, 61.4 °C for the second.

Going from “12694 (DNA GTTGCCATGGAGATCAAAATCTGTC; DNA, backbone not given here) [compound 12694]” to “12695 (DNA AGACGTACAGCAACAGAAATAGCAG; DNA, backbone not given here) [compound 12695]”, the “Average duplex melting temp.” value rises from 60 °C to 61.2 °C.

First: 12696 (DNA TTTGGTAGCACGTCAAGCTTAGTAT; DNA, backbone not given here) [compound 12696]
Second: 12697 (DNA ATAAAGCTGGCATTAGGTCTCTTTT; DNA, backbone not given here) [compound 12697]
The “Average duplex melting temp.” value of the first is higher: 59.2 °C for the first, 58.4 °C for the second.

Going from “12698 (DNA TTTTTCGGCCAATCGATCTTGAATT; DNA, backbone not given here) [compound 12698]” to “12699 (DNA CACTCTAACAGTATCGCCGTTTCTA; DNA, backbone not given here) [compound 12699]”, the “Average duplex melting temp.” value rises from 58.8 °C to 61.1 °C.

Compared with “12700 (DNA TCAATGGCCTTGGACCATATAATTG; DNA, backbone not given here) [compound 12700]”, “12701 (DNA AAAACGACAGCAAAAGGCTTTCTTC; DNA, backbone not given here) [compound 12701]” is lower in “Average duplex melting temp.” value: 59.5 °C for the first, 58.8 °C for the second.

Compared with “12702 (DNA ATTGACCTCAAATCTTTCTTGGATA; DNA, backbone not given here) [compound 12702]”, “12703 (DNA CCCAACTTTGTGACGTTTAATAAAA; DNA, backbone not given here) [compound 12703]” is higher in “Average duplex melting temp.” value: 54.5 °C for the first, 56.2 °C for the second.

First: 12704 (DNA ACCATCATCACCGAACTTTGTGTCG; DNA at ACG, LNA at T, backbone not given here) [compound 12704]
Second: 12705 (DNA CAATGATCGTGTAACGGAAATCAAC; sugars from the 5' end dddlddlddlddddddddddldddd, backbone not given here) [compound 12705]
The “Average duplex melting temp.” value of the first is higher: 74 °C for the first, 65.2 °C for the second.

First: 12706 (DNA TGGCCTAGGGAAACGGTCAGCTTAC; DNA at ACG, LNA at T, backbone not given here) [compound 12706]
Second: 12707 (DNA TTGGAAACATCGCGGTGCGCTTTTT; sugars from the 5' end lldddddddldddddlddddlllld, backbone not given here) [compound 12707]
The “Average duplex melting temp.” value of the first is higher: 71.6 °C for the first, 68.6 °C for the second.

Compared with “12708 (DNA GAAACATCGGGGAGCGCTTTTTCAA; sugars from the 5' end d6 l1 d10 l5 d3, backbone not given here) [compound 12708]”, “12709 (DNA GACAGCCTCAGTAAATTGGCCACCA; sugars from the 5' end d7 l1 d7 l2 d8, backbone not given here) [compound 12709]” is lower in “Average duplex melting temp.” value: 69.9 °C for the first, 68.8 °C for the second.

Going from “12710 (DNA CCGATTAAACGACAGACAGTATGCT; sugars from the 5' end ddddlldddddddddddddldlddd, backbone not given here) [compound 12710]” to “12711 (DNA ATCAAATAGGAAATCAGCTAAAGCC; sugars from the 5' end dlddddldddddddddddldddddd, backbone not given here) [compound 12711]”, the “Average duplex melting temp.” value falls from 63.5 °C to 58.1 °C.

Compared with “12712 (DNA GACCTAAGAACAAAAAGCTGGCAAT; sugars from the 5' end d4 l1 d13 l1 d6, backbone not given here) [compound 12712]”, “12713 (DNA AAATAGCAGCAAAGGCCTCGTCTTG; DNA at ACG, LNA at T, backbone not given here) [compound 12713]” is higher in “Average duplex melting temp.” value: 61.1 °C for the first, 70.4 °C for the second.

First: 12714 (DNA ATAGCAGCAATGCCCTCGTCTTGGC; DNA at ACG, LNA at T, backbone not given here) [compound 12714]
Second: 12715 (DNA GCAATGGCCTCGACTTGGCCAACGA; DNA at ACG, LNA at T, backbone not given here) [compound 12715]
The “Average duplex melting temp.” value of the first is lower: 71.3 °C for the first, 73.7 °C for the second.

Going from “12716 (DNA GATGAACTCAGGAGGATAGGATCTT; sugars from the 5' end ddlddddlddddddddlddddldld, backbone not given here) [compound 12716]” to “12717 (DNA TCAGTTAGCCAAACCTTCGCTTCAT; sugars from the 5' end ldddlldddddddddlldddllddd, backbone not given here) [compound 12717]”, the “Average duplex melting temp.” value rises from 64.9 °C to 69.4 °C.

Going from “12718 (DNA GTTGCCATGGAGATCAAAATCTGTC; sugars from the 5' end dllddddldddddddddddldldld, backbone not given here) [compound 12718]” to “12719 (DNA AGACGTACAGCAACAGAAATAGCAG; sugars from the 5' end d5 l1 d13 l1 d5, backbone not given here) [compound 12719]”, the “Average duplex melting temp.” value falls from 69.2 °C to 65 °C.

Going from “12720 (DNA TTTGGTAGCACGTCAAGCTTAGTAT; sugars from the 5' end lllddlddddddddddddllddldd, backbone not given here) [compound 12720]” to “12721 (DNA ATAAAGCTGGCAAAAGGTCTCTTTT; sugars from the 5' end dldddddldddddddddldldllld, backbone not given here) [compound 12721]”, the “Average duplex melting temp.” value falls from 68.6 °C to 67.2 °C.

Compared with “12722 (DNA TTTTTCGGCCAATCGATCTTGAATT; sugars from the 5' end ldllldddddddddddldlldddld, backbone not given here) [compound 12722]”, “12723 (DNA CACTCTAACAGTATCGCCGTTTCTA; sugars from the 5' end dddldldddddddddddddllldld, backbone not given here) [compound 12723]” is higher in “Average duplex melting temp.” value: 65.9 °C for the first, 69.7 °C for the second.

Going from “12724 (DNA TCAATGGCCTTGGACCATATAATTG; DNA at ACG, LNA at T, backbone not given here) [compound 12724]” to “12725 (DNA AAAACGACAGCAAAAGGCTTTCTTC; sugars from the 5' end d18 l3 d1 l2 d1, backbone not given here) [compound 12725]”, the “Average duplex melting temp.” value falls from 69.7 °C to 65.9 °C.

Going from “12726 (DNA ATTGACCTCAAATCTTTCTTGGATA; sugars from the 5' end dllddddlddddddllldlldddld, backbone not given here) [compound 12726]” to “12727 (DNA CCCAACTTTGTGACGTTTAATAAAA; DNA at ACG, LNA at T, backbone not given here) [compound 12727]”, the “Average duplex melting temp.” value rises from 65.1 °C to 66.5 °C.

Compared with “12728 (DNA ACCATCATCACCCAACCTTGTGTCG; sugars from the 5' end dlddlddldddddddddlddlddld, [5mC] at 2, 24, backbone not given here) [compound 12728]”, “12729 (DNA CAATGATCGTGTTACGGAAATCAAC; sugars from the 5' end lddlddlldlddddldddddllddd, [5mC] at 1, 8, 15, 22, backbone not given here; further chemistry not fully specified) [compound 12729]” is higher in “Average duplex melting temp.” value: 70.2 °C for the first, 75.5 °C for the second.

In the case of “12730 (DNA TGGCCTAGGGAAACGGTCAGCTTAC; sugars from the 5' end lddldlddddddddddldddldldd, [5mC] at 4, 21, backbone not given here) [compound 12730]”, the “Average duplex melting temp.” value is reported as 75.5 °C.
